Measurements published in ChEMBL document CHEMBL1268979, “Discovery of highly potent and efficacious MC4R agonists with spiroindane N-Me-1,2,4-triazole privileged structures for the treatment of obesity” (Bioorg Med Chem Lett, 2010).
Calls of active or inactive are those of the source. The calls are words filed in the database; no cut-off is given here.

Key:
Melanocortin receptor 4 [1] = molecular target: T1, Melanocortin receptor 4 (Homo sapiens, UniProt P32245); experiment: Inhibition of human MC4 receptor
[2] = Agonist activity at human MC1b receptor; format: functional
Melanocortin receptor 4 [3] = molecular target: T1, Melanocortin receptor 4; experiment: Agonist activity at human MC4 receptor; format: functional
Homo sapiens = species on record: Homo sapiens; experiment: Agonist activity at human MC1b receptor assessed as receptor activation; format: functional; parameters: concentration or dose not given beside the values
Melanocortin receptor 4 [4] = molecular target: T1, Melanocortin receptor 4; experiment: Agonist activity at human MC4 receptor assessed as receptor activation; format: functional
[5] = Volume of distribution in Sprague-Dawley rat at 1 mg/kg, iv and 4 mg/kg, po; format: ADME, organism-based; conditions: in vivo
Mus musculus [6] = experiment: Reduction in food intake in DIO mouse obesity model at 3 mg/kg, po after 4 hrs; format: functional
Mus musculus [7] = experiment: Reduction in food intake in wild type mouse at 20 mg/kg, po after 4 hrs; format: functional
[8] = Clearance in Sprague-Dawley rat at 1 mg/kg, iv and 4 mg/kg, po; format: ADME, organism-based; conditions: in vivo
Mus musculus [9] = experiment: Reduction in food intake in DIO mouse obesity model at 20 mg/kg, po after 4 hrs; format: functional
Mus musculus [10] = experiment: Reduction in food intake in MC4R/3R knockout mouse at 10 mg/kg, po after 4 hrs; format: functional
Mus musculus [11] = experiment: Reduction in food intake in wild type mouse at 20 mg/kg, po after 18 hrs; format: functional
Mus musculus [12] = experiment: Reduction in food intake in DIO mouse obesity model at 20 mg/kg, po after 18 hrs; format: functional
[13] = Half life in Sprague-Dawley rat at 1 mg/kg, iv and 4 mg/kg, po; format: ADME, organism-based; conditions: in vivo
Mus musculus [14] = experiment: Reduction in food intake in wild type mouse at 10 mg/kg, po after 4 hrs; format: functional
Mus musculus [15] = experiment: Reduction in food intake in MC4R/3R knockout mouse at 10 mg/kg, po after 18 hrs; format: functional
Mus musculus [16] = experiment: Reduction in food intake in DIO mouse obesity model at 6 mg/kg, po after 4 hrs; format: functional
Mus musculus [17] = experiment: Reduction in food intake in wild type mouse at 10 mg/kg, po after 18 hrs; format: functional
Mus musculus [18] = experiment: Reduction in food intake in DIO mouse obesity model at 6 mg/kg, po after 18 hrs; format: functional
Mus musculus [19] = experiment: Reduction in food intake in DIO mouse obesity model at 3 mg/kg, po after 18 hrs; format: functional
[20] = Oral bioavailability in Sprague-Dawley rat at 1 mg/kg, iv and 4 mg/kg, po; format: ADME, organism-based; conditions: in vivo
Mus musculus [21] = experiment: Reduction in body weight in DIO mouse obesity model at 3 mg/kg, po after 4 hrs; format: functional, organism-based; parameters: dose 3 mg/kg
Mus musculus [22] = experiment: Reduction in food intake in DIO mouse obesity model at 3 mg/kg, po measured for 18 hrs; format: functional
Mus musculus [23] = experiment: Reduction in body weight in DIO mouse obesity model at 20 mg/kg, po after 4 hrs; format: functional, organism-based; parameters: dose 20 mg/kg
Mus musculus [24] = experiment: Reduction in food intake in DIO mouse obesity model at 1 mg/kg, po measured for 18 hrs; format: functional
Mus musculus [25] = experiment: Reduction in body weight in DIO mouse obesity model at 6 mg/kg, po after 4 hrs; format: functional, organism-based; parameters: dose 6 mg/kg
Mus musculus [26] = experiment: Reduction in food intake in DIO mouse obesity model at 10 mg/kg, po measured for 18 hrs; format: functional

T1 sequence (P32245 whole entry): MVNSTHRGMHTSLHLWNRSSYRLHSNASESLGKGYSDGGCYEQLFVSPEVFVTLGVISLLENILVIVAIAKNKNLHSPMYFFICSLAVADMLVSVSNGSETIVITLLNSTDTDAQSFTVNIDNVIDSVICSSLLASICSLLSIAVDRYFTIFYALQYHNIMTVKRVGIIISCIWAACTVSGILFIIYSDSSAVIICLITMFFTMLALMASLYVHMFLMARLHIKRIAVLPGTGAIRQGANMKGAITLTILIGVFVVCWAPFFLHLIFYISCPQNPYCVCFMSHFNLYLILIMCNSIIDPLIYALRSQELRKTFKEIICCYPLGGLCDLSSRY

IC50 (Melanocortin receptor 4 [1]) [nM] | EC50 [2] [nM] | EC50 (Melanocortin receptor 4 [3]) [nM] | Activity (Homo sapiens) [%] | Activity (Melanocortin receptor 4 [4]) [%] | Vd [5] [L/kg] | clearance [8] [mL/min/kg] | half-life [13] [h] | bioavailability [20] [%] | SMILES | inhibition in vivo at 3 mg/kg (Mus musculus [6]) [%] | inhibition in vivo at 20 mg/kg (Mus musculus [7]) [%] | inhibition in vivo at 20 mg/kg (Mus musculus [9]) [%] | inhibition in vivo at 20 mg/kg (Mus musculus [11]) [%] | inhibition in vivo at 20 mg/kg (Mus musculus [12]) [%] | inhibition in vivo at 10 mg/kg (Mus musculus [14]) [%] | inhibition in vivo at 6 mg/kg (Mus musculus [16]) [%] | inhibition in vivo at 10 mg/kg (Mus musculus [17]) [%] | inhibition in vivo at 6 mg/kg (Mus musculus [18]) [%] | also measured
1.3 | 138 | 2.2 | – | – | – | – | – | – | Cc1cc2c(cc1Cl)C1(CCN(C(=O)[C@@H]3CN(C(C)(C)C)C[C@H]3c3ccc(F)cc3F)CC1)CC2C(C)(C)c1nnco1 (stereo in doubt; 5d2) [listing 1 of 2 here] | – | – | – | – | – | – | – | – | – | –
5.7 | 855 | 14 | 46 | 71 | – | – | – | – | Cc1nc(C(C)(C)C2CC3(CCN(C(=O)[C@@H]4CN(C(C)(C)C)C[C@H]4c4ccc(F)cc4F)CC3)c3cc(Cl)c(C)cc32)no1 (stereo not given in full) | – | – | – | – | – | – | – | – | – | –
1.7 | 1050 | 2.4 | 37 | 96 | 19 | 22 | 11 | 86 | Cc1cc2c(cc1Cl)C1(CCN(C(=O)[C@@H]3CCN(C(C)(C)C)C[C@H]3c3ccc(F)cc3F)CC1)C[C@@H]2C(C)(C)c1ncnn1C | 29 | 24 | 30 | 17 | 15 | 46 | 47 | 37 | 31 | inhibition in vivo at 10 mg/kg (Mus musculus [10]): 40%; inhibition in vivo at 10 mg/kg (Mus musculus [15]): 19%; inhibition in vivo at 3 mg/kg (Mus musculus [19]): 8%
– | – | – | 57 | 92 | – | – | – | – | Cc1cc2c(cc1Cl)C1(CCN(C(=O)[C@@H]3CN(C(C)(C)C)C[C@H]3c3ccc(F)cc3F)CC1)CC2C(C)(C)c1nnco1 (stereo in doubt; 5d2) [listing 2 of 2 here] | – | – | – | – | – | – | – | – | – | –
0.43 | 250 | 0.11 | 49 | 99 | 9.7 | 24 | 5.1 | 20 | Cc1cc2c(cc1Cl)C1(CCN(C(=O)[C@@H]3CC(N(C)C4CCOCC4)C[C@H]3c3ccc(F)cc3F)CC1)C[C@@H]2C(C)(C)c1ncnn1C (stereo not given in full) | 31 | 35 | 39 | 18 | 17 | 46 | 56 | 30 | 28 | Activity (Mus musculus [21]): Active; inhibition in vivo at 3 mg/kg (Mus musculus [22]): 56%; Activity (Mus musculus [23]): Active; inhibition in vivo at 1 mg/kg (Mus musculus [24]): 32%; Activity (Mus musculus [25]): Active; inhibition in vivo at 3 mg/kg (Mus musculus [19]): 15%; inhibition in vivo at 10 mg/kg (Mus musculus [26]): 31%
1.9 | 1140 | 2.3 | 88 | 97 | – | – | – | – | Cc1nnc(C(C)(C)[C@H]2CC3(CCN(C(=O)[C@@H]4CN(C(C)(C)C)C[C@H]4c4ccc(F)cc4F)CC3)c3cc(Cl)c(C)cc32)o1 | – | – | – | – | – | – | – | – | – | –
9.7 | 1650 | 48 | 57 | 99 | – | – | – | – | Cc1cnc(C(C)(C)[C@H]2CC3(CCN(C(=O)[C@@H]4CN(C(C)(C)C)C[C@H]4c4ccc(F)cc4F)CC3)c3cc(Cl)c(C)cc32)o1 | – | – | – | – | – | – | – | – | – | –
– | – | – | 10 | 117 | – | – | – | – | Cc1cc2c(cc1Cl)C1(CCN(C(=O)[C@@H]3CN(C(C)(C)C)C[C@H]3c3ccc(F)cc3F)CC1)CC2C(C)(C)c1nnco1 (stereo in doubt; 5d1) [listing 1 of 2 here] | – | – | – | – | – | – | – | – | – | –
0.84 | 708 | 0.9 | 54 | 105 | 10 | 37 | 3.4 | 35 | Cc1cc2c(cc1Cl)C1(CCN(C(=O)[C@@H]3CN(C4CCOCC4)C[C@H]3c3ccc(F)cc3F)CC1)C[C@@H]2C(C)(C)c1ncnn1C | 19 | 28 | 31 | 13 | 11 | 40 | 37 | 22 | 18 | inhibition in vivo at 10 mg/kg (Mus musculus [10]): 20%
16 | 1040 | 4.2 | 31 | 82 | – | – | – | – | Cc1cc2c(cc1Cl)C1(CCN(C(=O)[C@@H]3CN(C(C)(C)C)C[C@H]3c3ccc(F)cc3F)CC1)CC2C(C)(C)c1cnn[nH]1 (stereo not given in full) | – | – | – | – | – | – | – | – | – | –
0.41 | 125 | 0.23 | 80 | 106 | 5 | 6.7 | 9.4 | 26 | Cc1cc2c(cc1Cl)C1(CCN(C(=O)[C@@H]3CN(C(C)(C)C)C[C@H]3c3ccc(F)cc3F)CC1)C[C@@H]2C(C)(C)c1ncnn1C | 29 | 24 | 38 | 17 | 18 | 47 | 51 | 32 | 27 | inhibition in vivo at 10 mg/kg (Mus musculus [10]): 67%; inhibition in vivo at 10 mg/kg (Mus musculus [15]): 43%; inhibition in vivo at 3 mg/kg (Mus musculus [19]): 16%
49 | – | 211 | – | – | – | – | – | – | Cc1cc2c(cc1Cl)C1(CCN(C(=O)[C@@H]3CN(C(C)(C)C)C[C@H]3c3ccc(F)cc3F)CC1)CC2C(C)(C)c1nnco1 (stereo in doubt; 5d1) [listing 2 of 2 here] | – | – | – | – | – | – | – | – | – | –
